Test [1] deals with Neuronal acetylcholine receptor; alpha4/beta2 (Rattus norvegicus, UniProt P09483+P12390). Description: Displacement of [3H]-cytisine from Sprague-Dawley rat brain alpha4beta2 nAChR after 4 hrs by liquid scintillation counting analysis. A general note: In a radioligand displacement assay an active substance lowers the binding of a labelled ligand.
Test [2] deals with Neuronal acetylcholine receptor subunit alpha-7 (Rattus norvegicus, UniProt Q05941). Description: Displacement of [125I]-alpha-bungarotoxin from Sprague-Dawley rat brain alpha7 nAChR after 3 hrs by liquid scintillation counting analysis.
Sequence of Neuronal acetylcholine receptor subunit alpha-7 (Q05941 whole entry): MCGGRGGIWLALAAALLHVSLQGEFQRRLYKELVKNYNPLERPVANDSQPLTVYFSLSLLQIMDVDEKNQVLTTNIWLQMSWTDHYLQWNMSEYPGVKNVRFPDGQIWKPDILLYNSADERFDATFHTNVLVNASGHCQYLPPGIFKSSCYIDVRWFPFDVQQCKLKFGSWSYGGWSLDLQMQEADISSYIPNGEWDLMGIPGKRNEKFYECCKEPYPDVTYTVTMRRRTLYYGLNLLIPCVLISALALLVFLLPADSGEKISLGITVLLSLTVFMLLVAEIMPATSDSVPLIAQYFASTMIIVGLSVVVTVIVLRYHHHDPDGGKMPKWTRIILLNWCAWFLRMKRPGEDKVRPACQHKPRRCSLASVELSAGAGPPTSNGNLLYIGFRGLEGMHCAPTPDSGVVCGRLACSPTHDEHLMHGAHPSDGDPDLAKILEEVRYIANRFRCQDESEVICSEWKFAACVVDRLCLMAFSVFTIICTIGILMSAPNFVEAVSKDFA

Structures are written as SMILES.

Sequence of Neuronal acetylcholine receptor; alpha4/beta2 (P09483 whole entry): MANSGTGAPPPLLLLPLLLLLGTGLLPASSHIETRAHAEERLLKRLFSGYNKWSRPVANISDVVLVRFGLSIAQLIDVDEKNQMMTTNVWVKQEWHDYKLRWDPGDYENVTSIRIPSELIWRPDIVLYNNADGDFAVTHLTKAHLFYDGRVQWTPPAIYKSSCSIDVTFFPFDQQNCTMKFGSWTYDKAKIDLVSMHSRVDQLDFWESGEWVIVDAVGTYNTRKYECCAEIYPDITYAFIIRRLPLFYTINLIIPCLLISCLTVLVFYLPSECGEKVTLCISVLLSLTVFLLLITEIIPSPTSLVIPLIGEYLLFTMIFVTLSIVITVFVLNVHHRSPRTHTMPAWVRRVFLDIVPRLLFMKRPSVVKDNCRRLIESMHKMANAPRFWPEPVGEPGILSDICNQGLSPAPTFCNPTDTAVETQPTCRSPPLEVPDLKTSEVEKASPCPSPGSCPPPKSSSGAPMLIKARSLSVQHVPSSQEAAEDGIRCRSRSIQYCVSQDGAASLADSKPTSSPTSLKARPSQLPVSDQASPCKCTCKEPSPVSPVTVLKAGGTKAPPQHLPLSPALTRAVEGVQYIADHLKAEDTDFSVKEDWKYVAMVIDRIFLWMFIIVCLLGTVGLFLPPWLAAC
Sequence of Neuronal acetylcholine receptor; alpha4/beta2 (P12390 whole entry): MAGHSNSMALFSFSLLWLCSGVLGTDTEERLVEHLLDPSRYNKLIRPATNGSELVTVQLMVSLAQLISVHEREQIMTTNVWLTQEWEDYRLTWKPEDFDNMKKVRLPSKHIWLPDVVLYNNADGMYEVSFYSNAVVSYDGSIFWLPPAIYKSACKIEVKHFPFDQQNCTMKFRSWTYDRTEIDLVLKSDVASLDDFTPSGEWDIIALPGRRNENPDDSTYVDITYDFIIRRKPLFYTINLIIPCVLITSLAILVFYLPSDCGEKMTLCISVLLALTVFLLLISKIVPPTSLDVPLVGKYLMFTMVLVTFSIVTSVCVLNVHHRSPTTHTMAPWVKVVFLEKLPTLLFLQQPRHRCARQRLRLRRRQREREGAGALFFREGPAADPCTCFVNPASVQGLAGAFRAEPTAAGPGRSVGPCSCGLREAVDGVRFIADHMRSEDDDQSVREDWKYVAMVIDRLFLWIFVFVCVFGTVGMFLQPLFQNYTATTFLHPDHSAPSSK

In the case of `COc1ccc(CC2C(c3cccnc3)=N[C@@H]3CC[C@H]2C3)c(OC)c1` (stereo partly drawn), the values for the Ki in test [1] and in test [2] were 347 nM and 4400 nM, respectively.

As for `Oc1ccc(CC2C(c3cccnc3)=N[C@H]3CC[C@@H]2C3)cc1` (stereo partly drawn), the Ki (in general, the equilibrium dissociation constant of an inhibitor or competing ligand from its target) was determined as 72.5 nM in test [1] and 34.1 nM in test [2].

`COc1ccc(CC2C(c3cccnc3)=N[C@H]3CC[C@@H]2C3)c(OC)c1` (stereo partly drawn): the inhibition constant Ki in test [1] was 219 nM; in test [2], 16.4 nM.

Take `Nc1ccc(CC2C(c3cccnc3)=N[C@H]3CC[C@@H]2C3)cc1` (stereo partly drawn): the Ki in test [1] worked out at 34.1 nM; in test [2] it was 3.43 nM.
